Measured values published in US9617237B2, “Partially saturated tricyclic compounds and methods of making and using same” (Zafgen, Inc., priority 2011, dated 2017).

What follows are molecules tested against T1, recombinant human MetAP2 (Homo sapiens, UniProt P50579) (assay: Inhibition of recombinant human MetAP2 activity (fluorescence, MAS substrate, amino acid oxidase/Amplex red)). Details: manganese enzyme; 0.75 mM Methionine-Alanine-Serine (MAS) substrate; 30 minutes at 25° C.; pH 7.5; 1% DMSO.
T1 construct: made in house; host or cells: Sf9 insect cells
T1 sequence (P50579 whole entry): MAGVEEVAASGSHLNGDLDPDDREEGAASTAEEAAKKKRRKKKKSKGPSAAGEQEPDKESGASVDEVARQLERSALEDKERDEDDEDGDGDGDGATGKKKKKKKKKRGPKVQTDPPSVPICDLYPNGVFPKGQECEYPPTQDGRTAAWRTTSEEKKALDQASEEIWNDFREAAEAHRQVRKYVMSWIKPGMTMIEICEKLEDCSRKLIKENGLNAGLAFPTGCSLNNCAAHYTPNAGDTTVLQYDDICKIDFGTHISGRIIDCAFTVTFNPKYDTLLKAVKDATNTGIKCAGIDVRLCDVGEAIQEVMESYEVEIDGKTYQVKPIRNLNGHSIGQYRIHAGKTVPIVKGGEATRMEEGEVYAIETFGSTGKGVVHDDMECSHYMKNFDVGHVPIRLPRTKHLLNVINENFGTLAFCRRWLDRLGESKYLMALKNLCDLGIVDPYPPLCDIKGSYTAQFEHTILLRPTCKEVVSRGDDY
Format: biochemical
Method: Compounds are tested for their capacity to inhibit recombinant human MetAP2 activity using the following assay.
Human recombinant MetAP2 expressed in Sf9 cells followed by affinity purification and EDTA treatment to remove endogenous active site cation was dialysed against MnCl2 to produce the manganese enzyme used in the assay. The assay was carried out for 30 minutes at 25° C. in 50 mM HEPES buffer containing 100 mM NaCl, pH 7.5 the presence of 0.75 mM Methionine-Alanine-Serine (MAS) substrate and 50 μg/ml amino acid oxidase using a dilution of purified MetAP2 giving >3-fold signal: noise. Cleavage of the substrate by MetAP2 and oxidation of free methionine by amino acid oxidase was detected and quantified using fluorescence generated by Amplex red (10-acetyl-3,7-dihydroxyphenoxazine) in combination with horseradish peroxidase which detects H2O2 released during the oxidation step. The fluorescent signal was detected using a multiwell fluorimeter. Compounds were diluted in DMSO prior to addition to assay buffer, the final DMSO concentration in the assay being 1%.
IC50 values are calculated using the XLfit software package (version 2.0.5).
`CCN1CCC[C@@H]1C(=O)NCc1cc(F)ccc1S(=O)(=O)Nc1ccc2c(c1C(=O)O)OC[C@@H]1C[C@H]21` (mixture of isomers) [(1aRS,7bSR)-5-(2-{[((R)-1-Ethylpyrrolidine-2-yl)carbonyl-amino]methyl}-4-fluorobenzenesulfonylamino)-1,1a,2,7b-tetrahydrocyclopropa[c]chromene-4-carboxylic acid] was tested, and the IC50 was 50 to 500 nM.
Molecule `CCN1CC[C@@H](C(=O)NCc2cc(F)ccc2S(=O)(=O)Nc2ccc3c(c2C(=O)O)OC[C@@H]2C[C@H]32)C1` (mixture of isomers) [(1aRS,7bSR)-5-(2-{[((R)-1-Ethylpyrrolidine-3-carbonyl)amino]-methyl}-4-fluoro-benzenesulfonylamino)-1,1a,2,7b-tetrahydro-cyclopropa[c]chromene-4-carboxylic acid] has an IC50 of 50 to 500 nM.
In the case of `CCN1CC[C@@H](Cc2cc(F)ccc2S(=O)(=O)Nc2ccc3c(c2C(=O)O)OC[C@@H]2C[C@H]32)C1` (mixture of isomers) [(1aRS,7bSR)-5-[2-((R)-1-Ethylpyrrolidin-3-ylmethyl)-4-fluorobenzenesulfonyl-amino]-1,1a,2,7b-tetrahydro-cyclopropa[c]chromene-4-carboxylic acid], the IC50 is reported as < 50 nM.
`CCN1CC[C@H](Cc2cc(F)ccc2S(=O)(=O)Nc2ccc3c(c2C(=O)O)OC[C@@H]2C[C@H]32)C1` (mixture of isomers) [(1aRS,7bSR)-5-[2-((S)-1-Ethyl-pyrrolidin-3-ylmethyl)-4-fluorobenzenesulfonyl-amino]-1,1a,2,7b-tetrahydrocyclopropa[c]chromene-4-carboxylic acid] showed an IC50 of 50 to 500 nM.
In the case of `CCN1CCC[C@@H]1CCNc1ccccc1S(=O)(=O)Nc1ccc2c(c1C(=O)O)OC[C@@H]1C[C@H]21` (mixture of isomers) [(1aRS,7bSR)-5-{2-[2-((R)-1-Ethylpyrrolidin-2-yl)ethylamino]-benzenesulfonyl-amino}-1,1a,2,7b-tetrahydrocyclopropa-[c]chromene-4-carboxylic acid], the IC50 is reported as < 50 nM.
With `CCN1CC[C@@H](CCNc2ccccc2S(=O)(=O)Nc2ccc3c(c2C(=O)O)OC[C@@H]2C[C@H]32)C1` (mixture of isomers) [(1aRS,7bSR)-5-{2-[2-((R)-1-Ethylpyrrolidin-3-yl)ethylamino]-benzenesulfonylamino}-1,1a,2,7b-tetrahydrocyclopropa-[c]chromene-4-carboxylic acid] the IC50 was 50 to 500 nM.
Molecule `CCN1CC[C@@H](NCCc2cc(F)ccc2S(=O)(=O)Nc2ccc3c(c2C(=O)O)OC[C@@H]2C[C@H]32)C1` (mixture of isomers) [(1aRS,7bSR)-5-{2-[2-((R)-1-Ethylpyrrolidin-3-ylamino)ethyl]-4-fluoro-benzenesulfonylamino}-1,1a,2,7b-tetrahydrocyclopropa-[c]chromene-4-carboxylic acid] has an IC50 of 50 to 500 nM.
`CCN1CCC[C@H]1CCNc1ccccc1S(=O)(=O)Nc1ccc2c(c1C(=O)O)OC[C@@H]1C[C@H]21` (mixture of isomers) [(1aRS,7bSR)-5-{2-[2-((S)-1-Ethylpyrrolidin-2-yl)ethylamino]-benzenesulfonyl-amino}-1,1a,2,7b-tetrahydrocyclopropa-[c]chromene-4-carboxylic acid] was tested, and the IC50 was < 50 nM.
In the case of `CCN1CC[C@H](CCNc2ccccc2S(=O)(=O)Nc2ccc3c(c2C(=O)O)OC[C@@H]2C[C@H]32)C1` (mixture of isomers) [(1aRS,7bSR)-5-{2-[2-((S)-1-Ethylpyrrolidin-3-yl)ethylamino]-benzenesulfonyl-amino}-1,1a,2,7b-tetrahydrocyclopropa-[c]chromene-4-carboxylic acid], the IC50 is reported as 50 to 500 nM.
Work on `CCN1CC[C@@H](Nc2ccccc2S(=O)(=O)Nc2ccc3c(c2C(=O)O)OC[C@@H]2C[C@H]32)C1` (mixture of isomers) [(1aRS,7bSR)-5-{2-[((R)-1-Ethylpyrrolidin-3-yl)amino]-benzenesulfonylamino}-1,1a,2,7b-tetrahydrocyclopropa-[c]chromene-4-carboxylic acid] yielded an IC50 of 50 to 500 nM.
